These results are taken from patent publication US20240228572A1 (i2o Therapeutics, Inc., priority 2020, published 2024).

*1 amine or outer side, *2 acyl side, *3 side chain or, on linkers, in order; H or OH if unused. Where a SMILES comes first, the peptide text is derived from it. Bridges are numbered along the chain shown (N, C = ends). Side-chain parts run from the residue outwards. [ ]: non-standard residue; d: D form. The star is where a group is joined. C20 diacid = O=C(O)CCCCCCCCCCCCCCCCCCC(=O)*; γGlu = O=C(O)[C@H](CCC(=O)[*:2])N[*:1]; AEEA = NCCOCCOCC(=O)O; Aib = CC(C)(N)C(=O)O A value given as a limit tells only on which side of the number the result lay.

Usually EC50 stands for the concentration giving half of the maximal effect.

This experiment has as its target T1, human GLP-1 receptor (GLP-1R) (Homo sapiens, UniProt P43220).
T1 construct: expressed in transfected cells
Description: cAMP accumulation assay, CHO-K1 cells stably expressing human GLP-1R. The format is cell-based. Conditions: cAMP accumulation, mean pEC50, Table 10. On the procedure: In the presence of the non-specific cAMP/cGMP phosphodiesterase inhibitor, 3-isobutyl-1-methylxanthine (IBMX), accumulating cAMP can be measured in vitro using common detection methods. Thus, it is possible to estimate an in vitro potency (pEC50) for peptides activating each of these receptors using fit dose-response curves for cAMP accumulation.
CHO-K1 cells stably expressing human GLP-1R (Genebank accession #NM_002062) were grown in 90% F12-K media supplemented with 10% FBS and 250 μg/ml G418.
On day 1, CHO-K1 cells were plated at 1.5 million cells per T75 flask in 90% F12-K media supplemented with 10% FBS. On day 3 cells were transfected with 40 mcg of each expression plasmid using Lipofectamine 2000 transfection reagent. On day 5, cells were dispensed at 1000 cells per well in white 384-well OptiPlates in 5 mcL of assay buffer consisting of 1×HBSS, 5 mM HEPES, 0.5 mM IBMX, and 0.1% casein.
Peptides were serially diluted 4-fold in assay buffer to final concentrations ranging from 1×10^−9 M to 9.5×10^−16 M. Two assay controls consisting of 50 mcM forskolin (cAMP system maximum) or assay buffer only (cAMP system minimum) were also prepared. Five microliters of each peptide-concentration, or assay control, was added to triplicate wells and incubated for thirty minutes at room temperature. During this incubation step a 4× europium labelled cAMP tracer solution and a 4× Ulight®-anti-cAMP solution (consisting of an anti-cAMP monoclonal antibody labelled with Ulight™ dye) was prepared according to the manufacturer's protocol (PerkinElmer LANCE Ultra cAMP kit). Following this incubation, 5 mcL europium labelled cAMP and 5 mcL Ulight anti-cAMP antibody was added to each well. The plate was covered to prevent evaporation and incubated for 60 minutes at room temperature in the dark. Plates were read on an Envision fluorescent plate reader (PerkinElmer).
Test values were first normalized to the system maximum and system minimum averaged values in Excel using the formula: (test value−system min average)/(system max average -system min average)*100. Normalized test values represent a baseline corrected percentage of the system maximum cAMP response induced by forskolin. Data from up to 3 replicate tests were analyzed for each peptide. Potency values were estimated using GraphPad Prism software (v7.04) by fitting data to a 4-parameter logistic curve model: Y=Bottom+(Top−Bottom)/(1+10^((LogEC50−X))). The Hill slope was constrained to 1.0. EC50 values were converted to pEC50 values using the formula: pEC50=−Log (EC50).

T1 sequence (P43220 24-463): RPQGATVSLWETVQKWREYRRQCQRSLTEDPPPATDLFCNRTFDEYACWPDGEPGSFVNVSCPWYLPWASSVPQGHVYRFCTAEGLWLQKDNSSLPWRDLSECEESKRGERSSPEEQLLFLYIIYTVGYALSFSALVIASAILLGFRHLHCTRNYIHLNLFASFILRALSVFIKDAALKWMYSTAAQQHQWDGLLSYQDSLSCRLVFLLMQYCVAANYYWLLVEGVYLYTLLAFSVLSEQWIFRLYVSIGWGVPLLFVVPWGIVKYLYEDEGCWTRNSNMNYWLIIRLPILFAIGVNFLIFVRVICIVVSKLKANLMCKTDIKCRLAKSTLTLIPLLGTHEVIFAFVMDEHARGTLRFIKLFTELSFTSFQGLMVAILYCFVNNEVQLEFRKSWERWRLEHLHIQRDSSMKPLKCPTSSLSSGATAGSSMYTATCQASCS

Take `CC(C)C[C@H](NC(=O)[C@H](Cc1ccc(O)cc1)NC(=O)[C@H](CCCCN)NC(=O)[C@H](CO)NC(=O)[C@H](Cc1ccc(O)cc1)NC(=O)[C@H](CC(=O)O)NC(=O)[C@H](CO)NC(=O)[C@@H](NC(=O)[C@H](Cc1ccccc1)NC(=O)[C@@H](NC(=O)CNC(=O)[C@H](Cc1c[nH]cn1)NC(=O)[C@H](CO)NC(=O)[C@@H](N)Cc1ccc(O)cc1)[C@@H](C)O)[C@@H](C)O)C(=O)N[C@@H](CC(=O)O)C(=O)N[C@@H](CCCCNC(=O)CC[C@H](NC(=O)CC[C@H](NC(=O)COCCOCCNC(=O)CCCCCCCCCCCCCCCCCCC(=O)O)C(=O)O)C(=O)O)C(=O)N[C@@H](CCCCN)C(=O)N[C@@H](Cc1ccc(O)cc1)C(=O)N[C@@H](C)C(=O)N[C@@H](CO)C(=O)N[C@@H](CCC(=O)O)C(=O)N[C@@H](Cc1ccccc1)C(=O)N[C@H](C(=O)NC(C)(C)C(=O)N[C@@H](Cc1c[nH]c2ccccc12)C(=O)N[C@@H](CC(C)C)C(=O)N[C@@H](CCC(=O)O)C(=O)N[C@@H](CO)C(=O)N[C@@H](CCC(=O)O)C(=O)N1CCC[C@H]1C(=O)N[C@@H](CO)C(=O)N[C@@H](CO)C(=O)NCC(=O)N[C@@H](C)C(=O)N1CCC[C@H]1C(=O)N1CCC[C@H]1C(=O)N1CCC[C@H]1C(=O)N[C@@H](CO)C(=O)O)C(C)C` [Compound A24] (H-YSHGTFTSDYSKYLDK([γGlu-γGlu-AEEA-C20 diacid])KYASEFV[Aib]WLESEPSSGAPPPS-OH; N-terminus assumed): the concentration giving a half-maximal response (EC50) was over 1 nM.

In the case of `CC(C)C[C@@H]1NC(=O)[C@H](Cc2c[nH]c3ccccc23)NC(=O)[C@@H](NC(=O)[C@@H](NC(=O)[C@H](Cc2ccccc2)NC(=O)[C@H](CCCCNC(=O)CC[C@H](NC(=O)CC[C@H](NC(=O)COCCOCCNC(=O)CCCCCCCCCCCCCCCCCCC(=O)O)C(=O)O)C(=O)O)NC(=O)[C@H](CCC(N)=O)NC(=O)[C@H](C)NC(=O)[C@H](Cc2ccc(O)cc2)NC(=O)[C@H](CCCCN)NC(=O)C(C)(C)NC(=O)[C@H](CC(=O)O)NC(=O)[C@H](CC(C)C)NC(=O)[C@H](Cc2ccc(O)cc2)NC(=O)[C@H](CCCCN)NC(=O)[C@H](CO)NC(=O)[C@H](Cc2ccc(O)cc2)NC(=O)[C@H](CC(=O)O)NC(=O)[C@H](CO)NC(=O)[C@@H](NC(=O)[C@H](Cc2ccccc2)NC(=O)[C@@H](NC(=O)CNC(=O)[C@H](Cc2c[nH]cn2)NC(=O)[C@H](CO)NC(=O)[C@@H](N)Cc2ccc(O)cc2)[C@@H](C)O)[C@@H](C)O)C(C)C)CCCCNC(=O)C[C@@H](C(=O)N[C@@H](CCC(=O)O)C(=O)N2CCC[C@H]2C(=O)N[C@@H](CO)C(=O)N[C@@H](CO)C(=O)NCC(=O)N[C@@H](C)C(=O)N2CCC[C@H]2C(=O)N2CCC[C@H]2C(=O)N2CCC[C@H]2C(=O)N[C@@H](CO)C(=O)O)NC(=O)[C@H](CCC(=O)O)NC1=O` [Compound A30] (H-YSHGTFTSDYSKYLD[Aib]KYAQK([γGlu-γGlu-AEEA-C20 diacid])FVKWLEDEPSSGAPPPS-OH; lactam 24-28), the EC50 was over 1 nM.
